Data from PMC9764404 (ACS infectious diseases, 2022).

Tests used:
Type in all cases: binding
[1] = target: T1, LdtAb (Acinetobacter baumannii, UniProt A0A222A2P4); test: LC-MS of acyl-enzyme formation; conditions: covalent, 2 μM enzyme, 200 μM antibiotic, PBS pH 7.4, 22 °C
[2] = target: T1, LdtAb; test: LC-MS of acyl-enzyme formation; conditions: covalent; 2 μM enzyme, 200 μM antibiotic; PBS pH 7.4; 22 °C
[3] = target: T1, LdtAb; test: acylation by reporter substrate; conditions: covalent; very slow acylation

| SMILES | % acyl-enzyme after 18 h [1] [%] | apparent acylation rate constant k2 [2] [h⁻¹] | acylation by reporter substrate (data not shown) [3] |
| --- | --- | --- | --- |
| C[C@@H](O)[C@H]1C(=O)N2C(C(=O)O)=C(S[C@@H]3CN[C@H](CNS(N)(=O)=O)C3)[C@H](C)[C@H]12 [doripenem] | 21 |  |  |
| C[C@@H](O)[C@H]1C(=O)N2C(C(=O)O)=C(S[C@@H]3CN[C@H](C(=O)Nc4cccc(C(=O)O)c4)C3)[C@H](C)[C@H]12 [ertapenem] | 97 | 0.22 ± 0.01 |  |
| C[C@@H](O)[C@H]1C(=O)N2C(C(=O)O)=C(SCCN=CN)C[C@H]12 [imipenem] | 95 |  |  |
| C[C@@H](O)[C@H]1C(=O)N2C(C(=O)O)=C(S[C@@H]3CN[C@H](C(=O)N(C)C)C3)[C@H](C)[C@H]12 [meropenem] | 48 |  |  |
| O=C(Cc1cccs1)N[C@@H]1C(=O)N2C(C(=O)O)=C(/C=C/c3ccc([N+](=O)[O-])cc3[N+](=O)[O-])CS[C@H]12 [nitrocefin] |  |  | acylation of LdtAb by nitrocefin took more than six hours to reach completion |
